# Test results published in PMC9570267, “A Computational QSAR, Molecular Docking and In Vitro Cytotoxicity Study of Novel Thiouracil-Based Drugs with Anticancer Activity against Human-DNA Topoisomerase II” (International Journal of Molecular Sciences, 2022).
# Molecular target: T1, topoisomerase I (Homo sapiens, UniProt P11387)
# T1 construct: gene TOP1
# T1 sequence (P11387 2-765): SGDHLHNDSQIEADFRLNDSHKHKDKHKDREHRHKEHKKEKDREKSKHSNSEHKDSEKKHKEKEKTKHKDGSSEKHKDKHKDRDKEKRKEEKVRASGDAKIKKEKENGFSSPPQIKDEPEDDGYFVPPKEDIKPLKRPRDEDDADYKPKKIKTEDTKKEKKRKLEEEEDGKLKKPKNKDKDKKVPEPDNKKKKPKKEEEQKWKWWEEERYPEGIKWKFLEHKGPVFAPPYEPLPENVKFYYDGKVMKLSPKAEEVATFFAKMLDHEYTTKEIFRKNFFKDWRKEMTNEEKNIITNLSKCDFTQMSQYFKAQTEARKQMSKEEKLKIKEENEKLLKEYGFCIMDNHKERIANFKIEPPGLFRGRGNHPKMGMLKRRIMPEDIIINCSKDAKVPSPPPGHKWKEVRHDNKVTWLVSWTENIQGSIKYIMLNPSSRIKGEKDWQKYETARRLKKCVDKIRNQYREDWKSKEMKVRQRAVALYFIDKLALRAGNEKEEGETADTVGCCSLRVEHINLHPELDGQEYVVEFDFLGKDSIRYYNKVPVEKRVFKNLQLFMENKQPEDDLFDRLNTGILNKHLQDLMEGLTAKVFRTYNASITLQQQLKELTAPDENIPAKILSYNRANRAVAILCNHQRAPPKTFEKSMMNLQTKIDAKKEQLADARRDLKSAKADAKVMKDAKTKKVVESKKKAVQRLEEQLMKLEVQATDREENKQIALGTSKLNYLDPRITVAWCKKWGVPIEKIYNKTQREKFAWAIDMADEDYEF
# Test: supercoiled plasmid DNA relaxation gel assay (TopoGEN topo I kit)
# Format: biochemical
row,Structure (SMILES),IC50 [µM]
1,COc1ccc(C2C3=C(Nc4[nH]c(=S)[nH]c(=O)c42)c2ccccc2C3=O)cc1 (centres unmarked) [7H],30.9 ± 1.49
2,CN(C)c1ccc(C2C3=C(Nc4[nH]c(=S)[nH]c(=O)c42)c2ccccc2C3=O)cc1 (centres unmarked) [9H],38.8 ± 2.27
